The values below come from article PMC11944389, “Electrochemical Analysis and Inhibition Assay of Immune-Modulating Enzyme, Indoleamine 2,3-Dioxygenase” (Pharmaceuticals, 2025).

For the assay, the target named is T1, human indoleamine 2,3-dioxygenase 1 (hIDO1) (Homo sapiens, UniProt P14902).
T1 construct: gene IDO1; full-length hIDO1
The assay is described as follows: electrochemical inhibition assay (voltammetry, purified hIDO1 immobilized on nanoporous gold electrode, with O2 and Trp). The class given is biochemical.

Structures are written as SMILES.

T1 sequence (P14902 whole entry): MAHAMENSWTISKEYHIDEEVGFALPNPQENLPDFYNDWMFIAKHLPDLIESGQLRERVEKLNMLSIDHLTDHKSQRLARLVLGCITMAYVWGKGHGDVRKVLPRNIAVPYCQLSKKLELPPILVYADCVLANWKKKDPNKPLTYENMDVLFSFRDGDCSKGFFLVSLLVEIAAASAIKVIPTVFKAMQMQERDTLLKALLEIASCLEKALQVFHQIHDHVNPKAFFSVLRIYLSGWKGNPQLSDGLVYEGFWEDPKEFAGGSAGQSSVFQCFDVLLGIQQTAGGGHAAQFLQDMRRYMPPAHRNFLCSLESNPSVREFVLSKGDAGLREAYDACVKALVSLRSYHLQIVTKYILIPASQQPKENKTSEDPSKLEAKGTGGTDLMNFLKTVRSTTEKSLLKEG

By IC50 is commonly meant the concentration that inhibits the measured activity by half. For `CC(C)(C)c1nc(CN2CCN(CC(O)c3ccccc3)CC2)no1` (racemic) [MTS-7, 2-(4-{[5-(2-methyl-2-propanyl)-1,2,4-oxadiazol-3-yl]methyl}-1-piperazinyl)-1-phenylethanol], the IC50 is ~10 nM.
